Assay results reported in patent publication US12220440B2, “Drug composition, method for treating infection, disinfecting composition, and drug adjuvant” (priority 2022, dated 2025).
In brackets after ≈: the same amount, converted by molar mass. Where two headings read alike, the source gives them in different places. Peptide text beside a SMILES is read from it.

Assays:
Format in all cases: cell-based
[1] = tested on: mcr-1-bearing E. coli J53; experiment: Ca2+ / Mg2+ MIC-dependency in cation-supplemented MHB; details: 37° C., 16 hours
Procedure: Accordingly, the effect of divalent ions on the antibacterial activity of otilonium bromide and colistin is investigated. […] For FIGS. 5a-5b, E. coli J53 expressing MCR-1 is treated with colistin and colistin+Ob as indicated in Mueller Hinton II Broth (MHB) that is cation-adjusted; i.e., supplemented with different concentrations of Mg^2+ and Ca^2+ ions). The incubation is conducted at 37° C. for 16 hours.

[2] = tested on: mcr-1-bearing E. coli J53; experiment: microbe, parasite or virus in culture; details: 20 μg/ml of otilonium bromide
Excerpt: E. coli J53 strain carrying a natural mcr-1-bearing IncI2 plasmid (33 kb, KX711706.1) is used to screen and identify colistin adjuvants which could enhance the antibacterial activity of colistin.

[3] = tested on: P. aeruginosa (colistin-susceptible); experiment: MIC, colistin-susceptible P. aeruginosa isolates, with and without otilonium bromide; details: Pseudomonas aeruginosa
mcr-1-bearing E. coli = details: colistin 32 μg/ml for 24 hours; initial ~10^8 CFU/mL in saline
Procedure: Starvation-induced bacterial sub-population tolerant cells of colistin-resistant and colistin-susceptible E. coli and A. baumannii strains are tested against the bactericidal effect of the combination of otilonium bromide and colistin. […] The incubation temperature is 37° C. Ob and colistin are added at the same time.

Structure (SMILES): CCC(C)CCCC(=O)N[C@@H](CCN)C(=O)N[C@H](C(=O)N[C@@H](CCN)C(=O)N[C@H]1CCNC(=O)[C@H]([C@@H](C)O)NC(=O)[C@H](CCN)NC(=O)[C@H](CCN)NC(=O)[C@H](CC(C)C)NC(=O)[C@@H](CC(C)C)NC(=O)[C@H](CCN)NC1=O)[C@@H](C)O (stereo partly drawn) [Colistin] (HELM PEPTIDE1{[CCC(C)CCCC(=O)[*:2]].[Dab].T.[Dab].[Dab].[Dab].[dL].L.[Dab].[Dab].T}$PEPTIDE1,PEPTIDE1,5:R3-11:R2$$$V2.0)
- effect of supplemented Ca2+ and Mg2+ on MIC [1]: increase the MIC
- MIC ([2]; Escherichia coli, read-out: colistin MIC (minimum inhibitory concentration), mcr-1-bearing E. coli J53): 0.28 µg/mL (≈ 0.242 µM)
- reduction in colistin MIC ([2]; mcr-1-bearing E. coli J53): 32 fold
- MIC ([3]; P. aeruginosa PA01, colistin-susceptible, colistin alone, read-out: Colistin MIC, Colistin): 2 µg/mL (≈ 1.73 µM)
- MIC ([3]; P. aeruginosa PA01, colistin-susceptible, in the presence of 10 ug/ml Ob, read-out: Colistin MIC, Colistin + 10 ug/ml Ob): 0.5 µg/mL
- MIC ([3]; P. aeruginosa PA01, colistin-susceptible, in the presence of 20 ug/ml Ob, read-out: Colistin MIC, Colistin + 20 ug/ml Ob): 0.25 µg/mL
- MIC ([3]; P. aeruginosa PAER 2011-3010, colistin-susceptible, colistin alone, read-out: Colistin MIC, Colistin): 2 µg/mL (≈ 1.73 µM)
- MIC ([3]; P. aeruginosa PAER 2011-3010, colistin-susceptible, in the presence of 10 ug/ml Ob, read-out: Colistin MIC, Colistin + 10 ug/ml Ob): 1 µg/mL
- MIC ([3]; P. aeruginosa PAER 2011-3010, colistin-susceptible, in the presence of 20 ug/ml Ob, read-out: Colistin MIC, Colistin + 20 ug/ml Ob): 0.25 µg/mL
- MIC ([3]; P. aeruginosa PAER 2011-3252, colistin-susceptible, colistin alone, read-out: Colistin MIC, Colistin): 2 µg/mL (≈ 1.73 µM)
- MIC ([3]; P. aeruginosa PAER 2011-3252, colistin-susceptible, in the presence of 10 ug/ml Ob, read-out: Colistin MIC, Colistin + 10 ug/ml Ob): 0.5 µg/mL
- MIC ([3]; P. aeruginosa PAER 2011-3252, colistin-susceptible, in the presence of 20 ug/ml Ob, read-out: Colistin MIC, Colistin + 20 ug/ml Ob): 0.25 µg/mL
- MIC ([3]; P. aeruginosa PAER 2012-1527, colistin-susceptible, colistin alone, read-out: Colistin MIC, Colistin): 2 µg/mL (≈ 1.73 µM)
- MIC ([3]; P. aeruginosa PAER 2012-1527, colistin-susceptible, in the presence of 10 ug/ml Ob, read-out: Colistin MIC, Colistin + 10 ug/ml Ob): 2 µg/mL
- MIC ([3]; P. aeruginosa PAER 2012-1527, colistin-susceptible, in the presence of 20 ug/ml Ob, read-out: Colistin MIC, Colistin + 20 ug/ml Ob): 0.5 µg/mL
- MIC ([3]; P. aeruginosa PAERC 10.296, colistin-susceptible, colistin alone, read-out: Colistin MIC, Colistin): 2 µg/mL (≈ 1.73 µM)
- MIC ([3]; P. aeruginosa PAERC 10.296, colistin-susceptible, in the presence of 10 ug/ml Ob, read-out: Colistin MIC, Colistin + 10 ug/ml Ob): 0.0625 µg/mL
- MIC ([3]; P. aeruginosa PAERC 10.296, colistin-susceptible, in the presence of 20 ug/ml Ob, read-out: Colistin MIC, Colistin + 20 ug/ml Ob): 0.0625 µg/mL
- MIC ([3]; P. aeruginosa PAERC 11.2309, colistin-susceptible, colistin alone, read-out: Colistin MIC, Colistin): 2 µg/mL (≈ 1.73 µM)
- MIC ([3]; P. aeruginosa PAERC 11.2309, colistin-susceptible, in the presence of 10 ug/ml Ob, read-out: Colistin MIC, Colistin + 10 ug/ml Ob): 0.5 µg/mL
- MIC ([3]; P. aeruginosa PAERC 11.2309, colistin-susceptible, in the presence of 20 ug/ml Ob, read-out: Colistin MIC, Colistin + 20 ug/ml Ob): 2 µg/mL
- MIC ([3]; P. aeruginosa PAERC 11.236, colistin-susceptible, colistin alone, read-out: Colistin MIC, Colistin): 2 µg/mL (≈ 1.73 µM)
- MIC ([3]; P. aeruginosa PAERC 11.236, colistin-susceptible, in the presence of 10 ug/ml Ob, read-out: Colistin MIC, Colistin + 10 ug/ml Ob): 0.5 µg/mL
- MIC ([3]; P. aeruginosa PAERC 11.236, colistin-susceptible, in the presence of 20 ug/ml Ob, read-out: Colistin MIC, Colistin + 20 ug/ml Ob): 0.5 µg/mL
- MIC ([3]; P. aeruginosa PAERC 11.603, colistin-susceptible, colistin alone, read-out: Colistin MIC, Colistin): 2 µg/mL (≈ 1.73 µM)
- MIC ([3]; P. aeruginosa PAERC 11.603, colistin-susceptible, in the presence of 10 ug/ml Ob, read-out: Colistin MIC, Colistin + 10 ug/ml Ob): 0.5 µg/mL
- MIC ([3]; P. aeruginosa PAERC 11.603, colistin-susceptible, in the presence of 20 ug/ml Ob, read-out: Colistin MIC, Colistin + 20 ug/ml Ob): 0.25 µg/mL
- MIC ([3]; P. aeruginosa PAERC 12.1478, colistin-susceptible, colistin alone, read-out: Colistin MIC, Colistin): 2 µg/mL (≈ 1.73 µM)
- MIC ([3]; P. aeruginosa PAERC 12.1478, colistin-susceptible, in the presence of 10 ug/ml Ob, read-out: Colistin MIC, Colistin + 10 ug/ml Ob): 0.5 µg/mL
- MIC ([3]; P. aeruginosa PAERC 12.1478, colistin-susceptible, in the presence of 20 ug/ml Ob, read-out: Colistin MIC, Colistin + 20 ug/ml Ob): 0.125 µg/mL
- size of the viable tolerant population (mcr-1-bearing E. coli): 5*10^5 CFU/ml
